What was measured:
Assay type in all cases: biochemical
AcpS [1] = target: T1, AcpS (Escherichia coli, UniProt P24224); assay: FRET phosphopantetheinyl transferase assay with purified enzyme
Sfp [2] = target: T2, Sfp (Bacillus subtilis, UniProt P39135); assay: as above
Sfp [3] = target: T2, Sfp; assay: HPLC enzyme kinetics
AcpS [4] = target: T1, AcpS; assay: HPLC enzyme kinetics

T1 sequence (P24224 2-126): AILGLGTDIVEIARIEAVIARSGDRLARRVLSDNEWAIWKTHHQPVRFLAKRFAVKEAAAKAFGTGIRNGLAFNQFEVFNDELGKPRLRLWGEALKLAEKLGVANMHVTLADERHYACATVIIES
T2 sequence (P39135 whole entry): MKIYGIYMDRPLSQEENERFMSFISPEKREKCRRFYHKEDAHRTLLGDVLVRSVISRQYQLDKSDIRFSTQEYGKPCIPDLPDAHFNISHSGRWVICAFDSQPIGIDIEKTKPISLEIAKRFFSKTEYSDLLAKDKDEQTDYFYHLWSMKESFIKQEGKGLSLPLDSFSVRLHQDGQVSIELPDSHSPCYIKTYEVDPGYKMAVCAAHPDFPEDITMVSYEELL

Molecule: Nc1ncnc2c1ncn2[C@@H]1O[C@H](COP(=O)(O)O)[C@@H](OP(=O)(O)O)[C@H]1O [compound 3, 3’-phosphoadenosine-5’-phosphate]
- IC50 (AcpS [1]): 92 ± 6 µM
- IC50 (Sfp [2]): 12.3 ± 1.1 µM

Molecule: TAMRA-mCoA [compound 12]
- Km (Sfp [3]): 6 µM
- Km (AcpS [4]): 22 µM
